Test results: ChEMBL document CHEMBL5154911, “Palmatine Derivatives as Potential Antiplatelet Aggregation Agents via Protein Kinase G/Vasodilator-Stimulated Phosphoprotein and Phosphatidylinositol 3-Kinase/Akt Phosphorylation” (J Med Chem, 2022)
The source made the active and inactive calls. The calls are words filed in the database; no cut-off is given here.

Assays:
[1] = Antiplatelet activity against ADP-induced C57BL/6J mouse platelet aggregation assessed as maximal aggregration rate at 10 uM preincubated for 10 mins followed by ADP addition relative to control; format: functional
[2] = Cytotoxicity against human HUVEC cells assessed as cell vaibility at 100 uM by MTS assay; format: toxicity, cell-based; conditions: read-out: Activity
Platelet [3] = test: Antiplatelet activity against ADP-induced C57BL/6J mouse platelet aggregation assessed as reduction on platelet aggregation at 2.5 to 10 uM preincubated for 10 mins followed by ADP addition; format: functional, cell-based; conditions: dose 2.5-10 µM, DDE = dose-dependent effect
Platelet [4] = test: Inhibition of ADP-induced Akt activation in C57BL/6J mouse platelet assessed as reduction of AKT phosphorylation at Ser473 by western blot analysis; format: cell-based
Platelet [5] = test: Antiplatelet activity against ADP-induced C57BL/6J mouse platelet aggregation assessed as reduction in integrin alphaIIbbeta3 surface levels by measuring increase median fluorescence intensities at 10 uM incubated for 10 min by flow cytometry analysis; format: functional, cell-based
Platelet [6] = test: Antiplatelet activity against ADP-induced C57BL/6J mouse platelet aggregation assessed as reduction in P-selectin surface levels by measuring increase median fluorescence intensities at 10 uM incubated for 10 min by flow cytometry analysis; format: functional, cell-based

## COc1cccc(COc2c(OC)ccc3cc4[n+](cc23)CCc2cc(OC)c(OC)cc2-4)c1.[Br-]
[1]
  %max: 34.8%
[2]
  viability at 100 µM: 90%

## CCC(=O)Nc1c(OC)ccc2cc3[n+](cc12)CCc1cc(OC)c(OC)cc1-3.[Cl-]
[1]
  %max: 34.5%

## Br.COc1cc2c(cc1OC)-c1cc3ccc(OC)c(OCc4ccccc4[N+](=O)[O-])c3c[n+]1CC2
[1]
  %max: 39.7%

## COc1cc2c(cc1OC)-c1cc3ccc(OC)c(NC(=O)C4CCCCC4)c3c[n+]1CC2.[Cl-]
[1]
  %max: 37.7%

## COc1cc2c(cc1OC)-c1cc3ccc(OC)c(OS(=O)(=O)c4ccc([N+](=O)[O-])cc4)c3c[n+]1CC2.O=[SH](=O)c1ccccc1
[1]
  %max: 37.7%

## COc1cc2c(cc1OC)-c1cc3ccc(OC)c(NC(=O)C4CCCC4)c3c[n+]1CC2.[Cl-]
[1]
  %max: 34.9%

## COc1cc2c(cc1OC)-c1cc3ccc(OC)c(NCc4ccccc4)c3c[n+]1CC2.[Cl-]
[1]
  %max: 37.3%

## CCCCC(=O)Nc1c(OC)ccc2cc3[n+](cc12)CCc1cc(OC)c(OC)cc1-3.[Cl-]
[1]
  %max: 37.2%

## COc1cc2c(cc1OC)-c1cc3ccc(OC)c(OCC4CCCCC4)c3c[n+]1CC2.[Br-]
[1]
  %max: 33.9%

## COc1cc2c(cc1OC)-c1cc3ccc(OC)c(OCc4ccccc4C)c3c[n+]1CC2.[Br-]
[1]
  %max: 37.8%

## CCC(=O)Oc1c(OC)ccc2cc3[n+](cc12)CCc1cc(OC)c(OC)cc1-3.[Cl-]
[1]
  %max: 40.1%

## COc1cc2c(cc1OC)-c1cc3ccc(OC)c(OCc4cccc(F)c4)c3c[n+]1CC2.[Br-]
[1]
  %max: 35.7%

## C=CCOc1c(OC)ccc2cc3[n+](cc12)CCc1cc(OC)c(OC)cc1-3.[Br-]
[1]
  %max: 34.3%

## COc1cc2c(cc1OC)-c1cc3ccc(OC)c(NCc4ccc(F)cc4)c3c[n+]1CC2.[Cl-]
[1]
  %max: 34.2%

## CCOc1c(OC)ccc2cc3[n+](cc12)CCc1cc(OC)c(OC)cc1-3.[Br-]
[1]
  %max: 34.6%

## COc1cc2c(cc1OC)-c1cc3ccc(OC)c(OCc4ccc(C(C)C)cc4)c3c[n+]1CC2.[Br-]
[1]
  %max: 37.5%

## COc1cc2c(cc1OC)-c1cc3ccc(OC)c(NCc4ccc(C)cc4)c3c[n+]1CC2.[Cl-]
[1]
  %max: 33.2%

## COc1cc2c(cc1OC)-c1cc3ccc(OC)c(OCc4ccc(C(F)(F)F)cc4)c3c[n+]1CC2.[Br-]
[1]
  %max: 37.7%

## CCCCCCCOc1c(OC)ccc2cc3[n+](cc12)CCc1cc(OC)c(OC)cc1-3.[Br-]
[1]
  %max: 35.3%

## Br.COc1cc2c(cc1OC)-c1cc3ccc(OC)c(OCc4ccc([N+](=O)[O-])cc4)c3c[n+]1CC2
[1]
  %max: 37.9%

## COc1cc2c(cc1OC)-c1cc3ccc(OC)c(OCC4CC4)c3c[n+]1CC2.[Br-]
Platelet [3]
  Activity: Dde
Platelet [4]
  inhibition: Active
Platelet [5]
  Activity: Active
[1]
  %max: 30.4%
Platelet [6]
  Activity: Active
[2]
  viability at 100 µM: 90%

## C=CCc1c2[n+](cc3c(OC)c(OC)ccc13)CCc1cc(OC)c(OC)cc1-2.[Br-]
[1]
  %max: 36.5%

## COc1cc2c(cc1OC)-c1cc3ccc(OC)c(OCc4ccccc4C#N)c3c[n+]1CC2.[Br-]
Platelet [3]
  Activity: Dde
Platelet [4]
  inhibition: Active
Platelet [5]
  Activity: Active
[1]
  %max: 30.5%
Platelet [6]
  Activity: Active
[2]
  viability at 100 µM: < 60%

## COc1cc2c(cc1OC)-c1c(Cc3ccc(C)cc3)c3ccc(OC)c(OC)c3c[n+]1CC2.[Br-]
[1]
  %max: 38.3%

## COc1cc2c(cc1OC)-c1cc3ccc(OC)c(OCC4CCCC4)c3c[n+]1CC2.[Br-]
[1]
  %max: 35.4%

## COc1cc2c(cc1OC)-c1c(Cc3ccccc3C#N)c3ccc(OC)c(OC)c3c[n+]1CC2.[Br-]
[1]
  %max: 40.2%

## COc1cc2c(cc1OC)-c1cc3ccc(OC)c(OCc4cccc(Br)c4)c3c[n+]1CC2.[Br-]
[1]
  %max: 39.3%

## COc1cc2c(cc1OC)-c1cc3ccc(OC)c(OCc4ccc(C)cc4)c3c[n+]1CC2.[Br-]
[1]
  %max: 35.2%

## COc1ccc(CNc2c(OC)ccc3cc4[n+](cc23)CCc2cc(OC)c(OC)cc2-4)c(OC)c1.[Cl-]
[1]
  %max: 33.5%

## Br.COc1cc2c(cc1OC)-c1c(Cc3ccc([N+](=O)[O-])cc3)c3ccc(OC)c(OC)c3c[n+]1CC2
[1]
  %max: 38.6%

## COc1ccc(C(=O)Nc2c(OC)ccc3cc4[n+](cc23)CCc2cc(OC)c(OC)cc2-4)cc1.[Cl-]
[1]
  %max: 38.5%

## COc1cc2c(cc1OC)-c1cc3ccc(OC)c(OC(=O)c4ccccc4)c3c[n+]1CC2.[Cl-]
[1]
  %max: 42.6%

## COc1cc2c(cc1OC)-c1cc3ccc(OC)c(OCc4cccc(C#N)c4)c3c[n+]1CC2.[Br-]
[1]
  %max: 35.5%

## COc1cc2c(cc1OC)-c1cc3ccc(OC)c(OCc4ccccc4)c3c[n+]1CC2.[Br-]
[1]
  %max: 36.9%

## COc1cc2c(cc1OC)-c1cc3ccc(OC)c(NC(=O)c4ccccc4)c3c[n+]1CC2.[Cl-]
[1]
  %max: 35.8%

## COc1cc2c(cc1OC)-c1cc3ccc(OC)c(NC(=O)c4cccc(F)c4)c3c[n+]1CC2.[Cl-]
[1]
  %max: 40.6%

## CCCC(=O)Nc1c(OC)ccc2cc3[n+](cc12)CCc1cc(OC)c(OC)cc1-3.[Cl-]
[1]
  %max: 34.3%

## CCCCNc1c(OC)ccc2cc3[n+](cc12)CCc1cc(OC)c(OC)cc1-3.[Cl-]
[1]
  %max: 33.4%

## CCCCCNc1c(OC)ccc2cc3[n+](cc12)CCc1cc(OC)c(OC)cc1-3.[Cl-]
[1]
  %max: 37.8%

## COc1cc2c(cc1OC)-c1cc3ccc(OC)c(OCC(C)C)c3c[n+]1CC2.[Br-]
[1]
  %max: 33.4%

## CCCC(=O)Oc1c(OC)ccc2cc3[n+](cc12)CCc1cc(OC)c(OC)cc1-3.[Cl-]
[1]
  %max: 39.8%

## COc1cc2c(cc1OC)-c1c(C3C=CCCC3)c3ccc(OC)c(OC)c3c[n+]1CC2.[Br-] (stereo not given)
[1]
  %max: 39.8%

## COc1cc(COc2c(OC)ccc3cc4[n+](cc23)CCc2cc(OC)c(OC)cc2-4)cc(OC)c1.[Br-]
[1]
  %max: 38.4%

## COc1cc2c(cc1OC)-c1cc3ccc(OC)c(NCc4cccc(C#N)c4)c3c[n+]1CC2.[Cl-]
[1]
  %max: 36.3%

## COc1cc2c(cc1OC)-c1cc3ccc(OC)c(NC(=O)c4ccc(F)cc4)c3c[n+]1CC2.[Cl-]
[1]
  %max: 37.1%

## COc1cc2c(cc1OC)-c1cc3ccc(OC)c(NCc4ccc(Cl)cc4)c3c[n+]1CC2.[Cl-]
Platelet [3]
  Activity: Dde
Platelet [4]
  inhibition: Active
Platelet [5]
  Activity: Active
[1]
  %max: 31.6%
Platelet [6]
  Activity: Active

## COc1cc2c(cc1OC)-c1cc3ccc(OC)c(OCc4ccc(C#N)cc4)c3c[n+]1CC2.[Br-]
[1]
  %max: 42.1%

## COc1cc2c(cc1OC)-c1cc3ccc(OC)c(OC)c3c[n+]1CC2 [PALMITINE]
[1]
  %max: 38.4%

## COc1cc2c(cc1OC)-c1c(Cc3cc(C)cc(C)c3)c3ccc(OC)c(OC)c3c[n+]1CC2.[Br-]
[1]
  %max: 39.4%

## COc1cc2c(cc1OC)-c1cc3ccc(OC)c(NC(=O)C45CC6CC(CC(C6)C4)C5)c3c[n+]1CC2.[Cl-]
[1]
  %max: 34.7%

## COc1ccc(CNc2c(OC)ccc3cc4[n+](cc23)CCc2cc(OC)c(OC)cc2-4)cc1.[Cl-]
[1]
  %max: 35.6%

## COc1cc2c(cc1OC)-c1cc3ccc(OC)c(OCC4CCC4)c3c[n+]1CC2.[Br-]
[1]
  %max: 34.4%

## CCCCOc1c(OC)ccc2cc3[n+](cc12)CCc1cc(OC)c(OC)cc1-3.[Br-]
[1]
  %max: 34.4%

## COc1cc2c(cc1OC)-c1cc3ccc(OC)c(OCCC4CCCCC4)c3c[n+]1CC2.[Br-]
[1]
  %max: 36.5%

## COc1cc2c(cc1OC)-c1cc3ccc(OC)c(OC(=O)c4ccccc4C)c3c[n+]1CC2.[Cl-]
[1]
  %max: 38%

## COc1cc2c(cc1OC)-c1c(Cc3cccc(C)c3)c3ccc(OC)c(OC)c3c[n+]1CC2.[Br-]
[1]
  %max: 41.4%

## COC(=O)/C=C/c1ccc(Cc2c3[n+](cc4c(OC)c(OC)ccc24)CCc2cc(OC)c(OC)cc2-3)cc1.[Br-]
[1]
  %max: 38.2%

## Br.COc1cc2c(cc1OC)-c1cc3ccc(OC)c(OCc4cccc([N+](=O)[O-])c4)c3c[n+]1CC2
[1]
  %max: 33.3%

## COc1cc2c(cc1OC)-c1cc3ccc(OC)c(OS(=O)(=O)c4ccccc4)c3c[n+]1CC2.O=[S-](=O)c1ccccc1
[1]
  %max: 39.4%

## C/C=C/Cc1c2[n+](cc3c(OC)c(OC)ccc13)CCc1cc(OC)c(OC)cc1-2.[Br-]
[1]
  %max: 40.3%
